This assay addresses SelA-ΔN (Aquifex aeolicus, UniProt O67140). Description: X-ray crystallography. The format is binding. The conditions noted are these: 3.25 A; covalent, Lys285; thiosulfate co-bound.

Chain of SelA-ΔN (O67140 62-452, stated change not applied): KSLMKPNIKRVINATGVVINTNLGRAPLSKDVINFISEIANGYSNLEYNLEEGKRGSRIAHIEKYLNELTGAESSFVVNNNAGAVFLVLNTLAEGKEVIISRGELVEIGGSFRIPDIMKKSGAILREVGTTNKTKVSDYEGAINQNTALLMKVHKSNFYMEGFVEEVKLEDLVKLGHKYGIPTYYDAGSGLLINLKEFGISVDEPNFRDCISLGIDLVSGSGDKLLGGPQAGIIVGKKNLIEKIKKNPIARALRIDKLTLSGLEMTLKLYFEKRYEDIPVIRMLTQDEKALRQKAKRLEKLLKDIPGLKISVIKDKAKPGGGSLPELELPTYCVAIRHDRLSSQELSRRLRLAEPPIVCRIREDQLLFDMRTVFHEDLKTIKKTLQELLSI

For the compound `Cc1ncc(COP(=O)(O)O)c(C=O)c1O` [PLP], the X-ray crystallography entry was “SelA-ΔN in complex with thiosulfate. PLP and thiosulfate ions (TS1 to TS3) are shown”.

Source of the values: publication PMC3976565 (Science (New York, N.Y.), 2013).
